Patent US4734418A, “Quinazoline compounds and antihypertensives” (priority 1984, dated 1988)
Read-outs that look alike come from different tables or passages of the source.

System: Spontaneously Hypertensive Rats
Test: Test 1: antihypertensive effects (systolic tail artery blood pressure) and heart rate in spontaneously hypertensive rats, oral
Type: in vivo, rat (male, SHR)
Conditions: SHR, oral 1 mg/Kg; for change in vivo at 1 mg/kg: Rattus norvegicus; for Change (%) in heart rate: maximum value
Method: The antihypertensive effects of the certain compounds of this invention were studied in the following manner.
Among male, spontaneously hypertensive rats (SHRs) of 20 weeks of age or older and 350-430 g heavy all of which had developed hypertension, those having systolic blood pressures of 180 mmHg or higher were used in groups, each of which was constituted of 3-4 of the rats. […] Besides, heart rates were also measured simultaneously. The compounds were each dissolved or suspended in a 0.5% methylcellulose solution and then administered orally.
*All administered orally at a dosage of 1 mg/Kg except for the compounds
**Each percent change in heart rate is indicated by the corresponding

[1] = 1 hour, read-out: Antihypertensive effects, change (%) in blood pressure, 1 hour later
[2] = 3 hours, read-out: Antihypertensive effects, change (%) in blood pressure, 3 hours later
[3] = 6 hours, read-out: Antihypertensive effects, change (%) in blood pressure, 6 hours later
[4] = 24 hours, read-out: Antihypertensive effects, change (%) in blood pressure, 24 hours later

SMILES	change in vivo at 1 mg/kg [1] [%]	change in vivo at 1 mg/kg [2] [%]	change in vivo at 1 mg/kg [3] [%]	change in vivo at 1 mg/kg [4] [%]	Change (%) in heart rate
COc1cc2nc(N3CCN(c4ncc5c(=O)[nH]ccc5n4)CC3)nc(N)c2cc1OC [Example 3]	-2.5	-8	-15.1	-5	+7.1%
CCCn1ccc2nc(N3CCN(c4nc(N)c5cc(OC)c(OC)cc5n4)CC3)ncc2c1=O [Example 5]	0	-6.3	-13.2	-6.3	+2.6%
COc1cc2nc(N3CCN(c4ncc5c(=O)n(C(C)C)ccc5n4)CC3)nc(N)c2cc1OC [Example 6]	-1.5	-13.8	-16.7	-9.9	+5.1%
COc1cc2nc(N3CCN(c4ncc5c(=O)n(CCO)ccc5n4)CC3)nc(N)c2cc1OC [Example 7]	1.5	-4.4	-9.3	-2.9	+2.8%
COCCn1ccc2nc(N3CCN(c4nc(N)c5cc(OC)c(OC)cc5n4)CC3)ncc2c1=O [Example 8]	-0.5	-9.5	-11.4	-4	+5.2%
COc1cc2nc(N3CCN(c4ncc5c(=O)n(-c6ccccc6)ccc5n4)CC3)nc(N)c2cc1OC [Example 9]	-1.5	-8.1	-9.6	-5.1	+4.3%
COc1cc2nc(N3CCN(c4ncc5c(=O)n(Cc6ccccc6)ccc5n4)CC3)nc(N)c2cc1OC [Example 10]	1.5	-14.4	-11.9	-5	+5.2%
COc1cc2nc(N3CCN(c4ncc5c(=O)n(C6CC6)ccc5n4)CC3)nc(N)c2cc1OC [Example 11]	-0.5	-16.6	-17.1	-6.8	+5.7%
CCn1cc(C)c2nc(N3CCN(c4nc(N)c5cc(OC)c(OC)cc5n4)CC3)ncc2c1=O [Example 12]	-11	-14.3	-19	-6.7	+7.0%
CCn1cc(C#N)c2nc(N3CCN(c4nc(N)c5cc(OC)c(OC)cc5n4)CC3)ncc2c1=O [Example 13]	-1	-3.9		-3.9	+7.4%
CCn1cc(C=O)c2nc(N3CCN(c4nc(N)c5cc(OC)c(OC)cc5n4)CC3)ncc2c1=O [Example 14]	-1.9	-4.8	-13.9	-11	+7.3%
CCn1cc(Cc2ccccc2)c2nc(N3CCN(c4nc(N)c5cc(OC)c(OC)cc5n4)CC3)ncc2c1=O [Example 15]	-2.9	-7.7	-12	-7.7	+3.7%
CCn1ccc2nc(N3CCN(c4nc(N)c5cc(OC)c(OC)cc5n4)CC3)ncc2c1=S [Example 16]	-2	-8.9	-15.3	-8.9	+7.5%
CCOC(=O)c1cc2nc(N3CCN(c4nc(N)c5cc(OC)c(OC)cc5n4)CC3)ncc2c(=O)n1CC [Example 18]	0	-3.9	-9.8	-3.9	+11.1%
